Consider five molecules from US20100152267A1, “NOVEL RIFAMYCIN 3,4-(3-SUBSTITUTED AMINOMETHYL) FUSED PYRROLO DERIVATIVES” (priority 2008, published 2010).

Each structure is given as a SMILES string. Converted amounts (≈) assume the structure as drawn.

Format in all cases: cell-based
Assay [1] has as its system Enterococcus faecium OC 3312 vancomycin resistant. Kind of assay: MIC by microdilution broth method (NCCLS), A Strain. Conditions: read-out: MIC A Strain. As for the experimental part:
(§1) Minimum inhibitory concentration (MIC) is an indicator of in vitro antibacterial activity. […] The in vitro antimicrobial activity of representative compounds of the present invention was determined by the microdilution broth method following the test method from the National Committee for Clinical Laboratory Standards (NCCLS). This method is described in the NCCLS Document M7-A4, Vol. 17, No. 2, “Methods for Dilution Antimicrobial Susceptibility Test for Bacteria that Grow Aerobically—Fourth Edition”, which is incorporated herein by reference.
(§2) In this method two-fold serial dilutions of test compound in cation adjusted Mueller-Hinton broth were added to wells in microdilution trays. The test organisms were prepared by adjusting the turbidity of actively growing broth cultures so that the final concentration of test organism after it is added to the wells was approximately 5×10^4 CFU/well. Following inoculation of the microdilution trays, the trays were incubated at 35° C. for 16-20 hours and then read. The amount of growth in the wells containing the test compound was compared with the amount of growth in the growth-control wells (no test compound) used in each tray.
(§3) Representative compounds of the present invention were tested against a variety of pathogenic bacteria with results as listed in Table 2, below.

Assay [2] relates to Staphylococcus aureus OC4172. Kind of assay: MIC by microdilution broth method (NCCLS), C Strain. Conditions: cation adjusted Mueller-Hinton broth, 35° C., 16-20 hours. The method, then:
as §1, §2, §3
In general terms: Dilution methods test growth across graded concentrations, often in twofold steps.

The test system of assay [3] is Methicillin-resistant Staphylococcus aureus OC 2878. Briefly: MIC by microdilution broth method (NCCLS), D Strain. Conditions: read-out: MIC D Strain. The method, then: as §1, §2, §3
Assay [4] relates to Methicillin-resistant Staphylococcus aureus OC 3726 COL. Briefly: MIC by microdilution broth method (NCCLS), B Strain. Conditions: read-out: MIC B Strain. The method, then: as §1, §2, §3

In general, MIC refers to the least concentration at which growth counts as inhibited. As to `CO[C@H]1/C=C/O[C@@]2(C)Oc3c(C)c(O)c4c(O)c(c5c(CNCc6ccc(N7CCN(C)CC7)cc6)c[nH]c5c4c3C2=O)NC(=O)/C(C)=C\C=C\[C@H](C)[C@H](O)[C@@H](C)[C@@H](O)[C@@H](C)[C@H](OC(C)=O)[C@@H]1C` [Compound 4], the MIC in assay [1] worked out at 1 µg/mL (≈ 1.07 µM); in assay [2], 1 µg/mL (≈ 1.07 µM); in assay [3], 0.5 µg/mL (≈ 0.533 µM); in assay [4], 0.5 µg/mL (≈ 0.533 µM).
On to `CO[C@H]1/C=C/O[C@@]2(C)Oc3c(C)c(O)c4c(O)c(c5c(CN(C)Cc6ccc(N7CCN(C)CC7)cc6)c[nH]c5c4c3C2=O)NC(=O)/C(C)=C\C=C\[C@H](C)[C@H](O)[C@@H](C)[C@@H](O)[C@@H](C)[C@H](OC(C)=O)[C@@H]1C` [Compound 3], for which the minimum inhibitory concentration (MIC) in assay [1] came to 2 µg/mL (≈ 2.1 µM); in assay [2], 1 µg/mL (≈ 1.05 µM); in assay [3], 1 µg/mL (≈ 1.05 µM); in assay [4] it was 1 µg/mL (≈ 1.05 µM).
With `CO[C@H]1/C=C/O[C@@]2(C)Oc3c(C)c(O)c4c(O)c(c5c(CN(Cc6ccc(N7CCN(C)CC7)cc6)Cc6ccc(N7CCN(C)CC7)cc6)c[nH]c5c4c3C2=O)NC(=O)/C(C)=C\C=C\[C@H](C)[C@H](O)[C@@H](C)[C@@H](O)[C@@H](C)[C@H](OC(C)=O)[C@@H]1C` [Compound 5], the MIC is 1 µg/mL (≈ 0.888 µM) in assay [1], 0.25 µg/mL (≈ 0.222 µM) in assay [2], 0.25 µg/mL (≈ 0.222 µM) in assay [3] and 0.25 µg/mL (≈ 0.222 µM) in assay [4].
Consider `CO[C@H]1/C=C/O[C@@]2(C)Oc3c(C)c(O)c4c(O)c(c5c(CN6CCCCC6)c[nH]c5c4c3C2=O)NC(=O)/C(C)=C\C=C\[C@H](C)[C@H](O)[C@@H](C)[C@@H](O)[C@@H](C)[C@H](OC(C)=O)[C@@H]1C` [Compound 2], for which the MIC in assay [1] worked out at 8 µg/mL (≈ 9.78 µM); in assay [2], 4 µg/mL (≈ 4.89 µM); in assay [3] it was 4 µg/mL (≈ 4.89 µM); in assay [4] it was 4 µg/mL (≈ 4.89 µM).
Regarding `CO[C@H]1/C=C/O[C@@]2(C)Oc3c(C)c(O)c4c(O)c(c5c(CN)c[nH]c5c4c3C2=O)NC(=O)/C(C)=C\C=C\[C@H](C)[C@H](O)[C@@H](C)[C@@H](O)[C@@H](C)[C@H](OC(C)=O)[C@@H]1C` [Compound 1], the MIC in assay [1] was below 1 µg/mL; in assay [2], 0.12 µg/mL (≈ 0.16 µM); in assay [3] it was 0.25 µg/mL (≈ 0.333 µM); in assay [4] it was 0.25 µg/mL (≈ 0.333 µM).
